Assay results published in ChEMBL document CHEMBL1212746, “Assessment of the in vitro kinetic activity of caspofungin against Candida glabrata” (2010).
≈ marks a conversion by molar mass, not a printed value.

Key:
Nakaseomyces glabratus [1] = assay: Antifungal activity against Candida glabrata assessed as fungicidal activity by broth microdilution assay; type: functional
Nakaseomyces glabratus [2] = assay: Antifungal activity against Candida glabrata by broth microdilution assay; type: functional
Nakaseomyces glabratus [3] = assay: Antifungal activity against Candida glabrata assessed as time to kill at 4 ug/ml; type: functional
Nakaseomyces glabratus [4] = assay: Antifungal activity against fluconazole-resistant Candida glabrata isolate 05 in presence of amphotericin B by broth microdilution assay
Nakaseomyces glabratus [5] = assay: Antifungal activity against fluconazole-resistant Candida glabrata isolate 01 in presence of fluconazole by broth microdilution assay; type: functional
Nakaseomyces glabratus [6] = assay: Antifungal activity against fluconazole-resistant Candida glabrata isolate 01 by broth microdilution assay; type: functional
Nakaseomyces glabratus [7] = assay: Antifungal activity against fluconazole-susceptible Candida glabrata isolate 03 in presence of fluconazole by broth microdilution assay
Nakaseomyces glabratus [8] = assay: Antifungal activity against fluconazole-resistant Candida glabrata isolate 03 by broth microdilution assay; type: functional
Nakaseomyces glabratus [9] = assay: Antifungal activity against Candida glabrata assessed as time to kill at 1 ug/ml; type: functional
Nakaseomyces glabratus [10] = assay: Antifungal activity against fluconazole-resistant Candida glabrata isolate 05 by broth microdilution assay; type: functional
Nakaseomyces glabratus [11] = assay: Antifungal activity against fluconazole-resistant Candida glabrata isolate 02 by broth microdilution assay; type: functional
Nakaseomyces glabratus [12] = assay: Antifungal activity against fluconazole-resistant Candida glabrata isolate 04 by broth microdilution assay; type: functional
Nakaseomyces glabratus [13] = assay: Antifungal activity against fluconazole-resistant Candida glabrata isolate 04 in presence of fluconazole by broth microdilution assay; type: functional
Nakaseomyces glabratus [14] = assay: Antifungal activity against fluconazole-resistant Candida glabrata isolate 02 in presence of voriconazole by broth microdilution assay

| SMILES | MFC (Nakaseomyces glabratus [1]) [µg/mL] | MIC50 (Nakaseomyces glabratus [2]) [µg/mL] | MIC90 (Nakaseomyces glabratus [2]) [µg/mL] | Time (Nakaseomyces glabratus [3]) [h] | fractional inhibitory concentration index (FICI) (Nakaseomyces glabratus [4]) | fractional inhibitory concentration index (FICI) (Nakaseomyces glabratus [5]) | MIC (Nakaseomyces glabratus [6]) [µg/mL] | fractional inhibitory concentration index (FICI) (Nakaseomyces glabratus [7]) | MIC (Nakaseomyces glabratus [8]) [µg/mL] | Time (Nakaseomyces glabratus [9]) [h] | MIC (Nakaseomyces glabratus [10]) [µg/mL] | MIC (Nakaseomyces glabratus [11]) [µg/mL] | MIC (Nakaseomyces glabratus [12]) [µg/mL] | fractional inhibitory concentration index (FICI) (Nakaseomyces glabratus [13]) | fractional inhibitory concentration index (FICI) (Nakaseomyces glabratus [14]) |
| --- | --- | --- | --- | --- | --- | --- | --- | --- | --- | --- | --- | --- | --- | --- | --- |
| C[C@@H]1[C@H](O)[C@@H](C)/C=C/C=C/C=C/C=C/C=C/C=C/C=C/[C@H](O[C@@H]2O[C@H](C)[C@@H](O)[C@H](N)[C@@H]2O)C[C@@H]2O[C@](O)(C[C@@H](O)C[C@@H](O)[C@H](O)CC[C@@H](O)C[C@@H](O)CC(=O)O[C@H]1C)C[C@H](O)[C@H]2C(=O)O [AMPHOTERICIN B] | 1 | 0.5 (≈ 0.541 µM) | 1 (≈ 1.08 µM) | – | – | – | – | – | – | – | – | – | – | – | – |
| CC[C@H](C)C[C@H](C)CCCCCCCCC(=O)N[C@H]1C[C@@H](O)[C@@H](NCCN)NC(=O)[C@@H]2[C@@H](O)CCN2C(=O)[C@H]([C@H](O)CCN)NC(=O)[C@H]([C@H](O)[C@@H](O)c2ccc(O)cc2)NC(=O)[C@@H]2C[C@@H](O)CN2C(=O)[C@H]([C@@H](C)O)NC1=O [CASPOFUNGIN] | 4 | 0.5 (≈ 0.457 µM) | 2 (≈ 1.83 µM) | 2 | 1.06 | <0.5 | 0.5 (≈ 0.457 µM) | 0.185 | 0.5 (≈ 0.457 µM) | 4 | 0.25 (≈ 0.229 µM) | 0.25 (≈ 0.229 µM) | 0.5 (≈ 0.457 µM) | 0.5625 | 0.56 |
| OC(Cn1cncn1)(Cn1cncn1)c1ccc(F)cc1F [FLUCONAZOLE] | > 128 | 4 (≈ 13.1 µM) | 32 (≈ 104 µM) | – | – | – | 128 (≈ 418 µM) | – | 2 (≈ 6.53 µM) | – | 1 (≈ 3.27 µM) | 64 (≈ 209 µM) | 32 (≈ 104 µM) | – | – |
| C[C@@H](c1ncncc1F)[C@](O)(Cn1cncn1)c1ccc(F)cc1F [VORICONAZOLE] | > 32 | 0.125 (≈ 0.358 µM) | 1 (≈ 2.86 µM) | – | – | – | – | – | – | – | – | – | – | – | – |
